The numbers were not newly measured in patent CN110302150A, “甲硫氨酸维生素b1注射液及其的制备方法” (Chengdu Cacumen Et Folium Clerodendri Mandarinori …, priority 2019, dated 2019), which cites them from elsewhere.

The structures appear in SMILES notation. Read-outs that look alike come from different tables or passages of the source.

With `Cc1ncc(C[n+]2csc(CCO)c2C)c(N)n1` [维生素B1], the stability result is “不稳定,较易降解” (during production and storage); “不稳定” (high temperature and pH>4). Turning to `CSCCC(N)C(=O)O` (stereo not drawn) [甲硫氨酸], for the setting “during production and storage”, the stability entry was “不稳定,较易降解”.
